Experimental data published in patent publication US20120237614A1, “PEPTIDE ABLE TO DISRUPT THE PROTEIN COMPLEX BETWEEN THE HIS273 MUTADED P53 PROTEIN AND THE ONCOSUPPRESSIVE P73 PROTEIN IN TUMOR CELLS AND THERAPEUTIC USES THEREOF” (priority 2009, published 2012).
“Also recorded” adds a separate entry of the source.

What was measured:
mutp53 His-273 protein = target: T1, mutp53 His-273 protein (Homo sapiens, UniProt P04637, R273H); experiment: Dot immunobinding test with total cell extracts; type: binding; conditions: total extracts 1 mg, peptide on nitrocellulose membrane
T1 construct: Total extracts deriving from SKBR3, (His-175) HT29, (His-273) and H1299 (p53 free) tumour cells; endogenous in cells; host or cells: HT29 total cell extract
Method: (A) Total extracts deriving from SKBR3, (His-175) HT29, (His-273) and H1299 (p53 free) tumour cells have been incubated (1 mg) on SIMP1 and SIMPIKO peptide labelled nitrocellulose membrane and Dot Blot analysed. In (B) the membranes have been incubated with 20 μg of wild type WT GST-p53 purified protein or GST-p53 His-175, GST-p53-His-175, 74-298 or GST alone. In both experiments dots have been detected by labelling the membranes with anti-p53 (DO1) antibody
Nitrocellulose membranes have been cut, washed with water and blotted on the paper filters. The peptides at 250 mM concentration have been transferred on membrane. Labelled membrane has been washed for 10 min. with TBST buffer (10 mM Tris-HCl pH 7.4, 150 mM NaCl, 0.05% (v/v) Tween-20) and then blocked for 45 min with TBST/5% milk. Then the membranes have been incubated for 6 hours at 4° C. in shaker with 1 mg of total protein extract or 20 μg of GST fusion purified proteins. Successively the membranes have been washed with TBST buffer and decorated with anti-p53 antibody (DO1) as a primary antibody. As secondary antibody horse peroxidase conjugated goat antibody has been used. Immunolabelled lanes have been detected using chemiluminescence analysis (Pierce).
The membranes decorated with SIMP peptides also have been incubated with GST-p53 His175, GST p53His74-298, GST WTp53 fusion proteins, GST control.

HT29 cells = experiment: In vivo tumorigenicity test (xenograft of peptide transfected HT29 cells); conditions: naked mice, s.c. 5×10^5 peptide transfected cells/mouse, 5 weeks
Method: In order to assay SIMP1 in vivo antitumor activity nu/nu […] mice were administered subcutaneously with SIMP1, SIMP1KO and SIMP5M transfected HT29 cells (5.0×10^5 cells/mouse). Tumour growth has been monitored over 5 weeks.
Xenograft assays have been carried out by administration to naked mice subcutaneous injections containing 5×10^5 cells/mouse of SIMP1, SIMP1KO and SIMP5M peptide transfected colon and rectum tumour human cell line (nu/nu CD1 Charles River mice). The tumour growth together with animal body weight is monitored for 5 weeks in order to estimate the chronic toxicity
The experiments have been carried out by administration to naked mouse (nu/nu CD1 Charles River mice) subcutaneous injections containing 5×10^5 cells/mouse. The tumour growth has been monitored together with animal body weight for 5 weeks in order to estimate possible not occurred chronic toxic effects (FIG. 5).

m-p53His-273/p73 complex = target: T2, m-p53His-273/p73 complex (Homo sapiens, UniProt P04637, R273H); experiment: Coprecipitation (immunoprecipitation) test of the m-p53/p73 complex in MDA-MB-468 cells; type: cell-based; conditions: His-273 mutation, peptide 20 μM, anti-p73 immunoprecipitation
T2 construct: Total cellular lysates (1 mg), have been immunoprecipitated with antibodies directed against p73; endogenous in cells; host or cells: MDA-MB-468
Method: (§1) (A) MDA-MB-468 (5×10^5) cells have been transfected using a lipofectamine containing mixture, βgal expression vector, which normalizes transfection efficiency, and SIMPI peptide (20 μM). Total cellular lysates (1 mg), have been immunoprecipitated with antibodies directed against p73 and immunoglobulins (IgG). Immunoprecipitates and an aliquot (50 μg) of total lysate after 12% acrylamide gel electrophoretic run have been transferred on nitrocellulose membrane and labelled with antibodies shown in the figure. (B) MDA-MB-468 cells, have been transfected using SIMP1 and SIMP5,6. peptides. Successively, cells have been washed and stimulated with 3 μM Adriamycin. Total obtained lysates (30 μg) have been assayed for the expression of PARP and BAX apoptotic proteins. Lysate has been normalized by assaying γ-tubulin expression. (C-D). Transactivation tests have been carried out by transient transfection of H1299 cells using a mixture containing lipofectamine, SIMP1, SIMP5,6 indicated plasmids (20 μM each) together with pLUC-BAX reporter vector. To each reaction mixture an equal amount of […] expression vector was added, in order to normalize the transfection efficiency.
The cell extracts have been processed in a lysis buffer containing 50 mm Tris HCl pH 8, 100 mM NaCl, 10% glycerol, 1% Triton X-100, 1 mM EDTA, 100 mM NaF, MgCl2, 1 mM PMSF, protease and phosphatase inhibitors. Then extracts have been sonicated and centrifuged at 14.000 rpm for 10 min for the debris removal.
50 μg of solubilised proteins have been separated by electrophoresis on 10 or 15% SDS-polyacrylamide gel. Western blot analysis has been carried out using anti-p53 primary antibodies (DO1 Calbiochem), rabbit anti-PARP, rabbit polyclonal anti-Bax, anti-p21 and anti-tubulin monoclonal antibodies (Calbiochem). […] Immunolabelled lanes have been detected using chemiluminescence analysis (Pierce). […]
In order to evaluate the activity of SIMPI peptide and SIMP1KO and SIMP1M derivatives the ability in disrupting the oncogenic m-p53His-273/p73 complex has been analysed.

[1] = test system: MDA-MB468 breast and HT29 colon carcinoma cell lines; experiment: Cell viability / proliferation assays after peptide transfection; type: cell-based, human; conditions: peptide transfected cells
Method: (A) In order to verify the SIMPI peptide specificity, independently from the cellular context, we tested SIMP1 peptides in some Adriamicyn treated colon carcinoma HT29 (His-273). cell lines. The cells have been transfected using a mixture containing lipofectamine, pLUC-BAX plasmid, β-galactosidase expression vector, SIMP1 and SIMP5M control peptides. 24 hours post-transfection, have been treated with 3 μM Adriamicyn. (B-C). Viability and inhibition assays have been carried out after transfection using SIMP1 and SIMP5M peptides in HT29 (colon cancer) and MDA-MB-468 (breast cancer) cell lines
Cell viability has been tested using Trypan Blue exclusion assays.
We observed a reduction of cell proliferation in MDA-MB468 breast and HT29 colon carcinoma cell lines.

[2] = test system: tumour cell lines containing His-175 or His-273 p53 mutation; experiment: Summary of activity by p53 mutation type; type: cell-based; conditions: FIG. 6 summary
Source text: SIMP1M: FQQSSTARSATW (SEQ ID NO:16) (MW: 1369, PI: 9.75) peptide is a mutated version of SIMP1 peptide wherein K138 residue has been replaced by Arginine.
FIG. 6 that SIMP peptides and by-products thereof displace protein complexes involving mutated protein p53 and p73.

MDA-MB-468 cells = experiment: Apoptotic tests (PARP and BAX expression, Western blot) after Adriamycin; type: cell-based, human; conditions: MDA-MB-468, 3 μM Adriamycin
Method: as §1
50 μg of solubilised proteins have been separated by electrophoresis on 10 or 15% SDS-polyacrylamide gel. Western blot analysis has been carried out using anti-p53 primary antibodies (DO1 Calbiochem), rabbit anti-PARP, rabbit polyclonal anti-Bax, anti-p21 and anti-tubulin monoclonal antibodies (Calbiochem). Goat anti-mouse and goat anti-rabbit horse peroxidase conjugated secondary antibodies (Amersham) have been used for the expression analyses. Immunolabelled lanes have been detected using chemiluminescence analysis (Pierce).
To this end cell viability and apoptotic tests (FIG. 1B, FIG. 4 B-C) on MDA-MB468 breast carcinoma have been carried out.

Sequence: FQQSSTAKSATW (p73 SIMP (aa 131-142)) [SIMP1]
- direct binding to mutp53 His-273 (dot blot, anti-p53 DO1) (mutp53 His-273 protein): binds directly the mutp53 His-273 protein
- tumour growth (tumour size) in vivo (HT29 cells): tumour growth is decreased; also recorded: meaningful reduction of the growth (tumour size)
- disruption of m-p53 His-273/p73 protein complex (p73 bound m-p53 amount) (m-p53His-273/p73 complex): suitable to disrupt m-p53/p73 complexes in tumour cells containing his-273 mutation; also recorded: disrupt selectively m-p53/p73 complex
- disruption of m-p53 His-273/p73 protein complex (p73 bound m-p53 amount) (m-p53His-273/p73 complex; listed as SIMPI): disrupts mutated p53/p73 protein complex; also recorded: largely reduced
- cell proliferation in vitro [1]: reduce the cell proliferation in vitro
- specificity for p53 mutation type [2]: display specificity for His-273 mutation containing tumours
- apoptotic response (MDA-MB-468 cells): increase the apoptotic response to chemotherapeutic agents
- apoptotic response (MDA-MB-468 cells; listed as SIMPI): increases the apoptotic response
